According to the NIST ThermoML archive (doi:10.1016/j.tca.2010.02.010):
Numbers after ± are expanded uncertainties.

Assays:
[1] = 298.15 K; 101 kPa; Liquid; Vibrating tube method
[2] = xn = mol fraction of the nth substance listed; settings: 298.15 K, 101 kPa, Liquid, Vibrating tube method

## CCCCN [1-butanamine]
[1]
  mass density: 734.65 ± 0.21 kg/m3

## CC(C)CO [2-methyl-1-propanol] + CCCCN
[2]; x2 = 0
  mass density: 797.84 ± 0.31 kg/m3

## CCCCN [1-butanamine] + CC(C)CO
[2]; x1 = 0.0482
  mass density: 796.16 ± 0.3 kg/m3
[2]; x1 = 0.0921
  mass density: 794.54 ± 0.29 kg/m3
[2]; x1 = 0.1855
  mass density: 790.79 ± 0.28 kg/m3
[2]; x1 = 0.2961
  mass density: 785.62 ± 0.26 kg/m3
[2]; x1 = 0.3674
  mass density: 781.71 ± 0.25 kg/m3
[2]; x1 = 0.4578
  mass density: 776.31 ± 0.25 kg/m3
[2]; x1 = 0.5021
  mass density: 773.52 ± 0.24 kg/m3
[2]; x1 = 0.5502
  mass density: 770.4 ± 0.24 kg/m3
[2]; x1 = 0.6313
  mass density: 764.59 ± 0.23 kg/m3
[2]; x1 = 0.7237
  mass density: 757.45 ± 0.22 kg/m3
[2]; x1 = 0.8191
  mass density: 749.75 ± 0.22 kg/m3
[2]; x1 = 0.9098
  mass density: 742.18 ± 0.21 kg/m3
[2]; x1 = 0.9418
  mass density: 739.52 ± 0.21 kg/m3
[2]; x1 = 1
  mass density: 734.65 ± 0.21 kg/m3

## CCCCCl [1-chlorobutane] + CCCCN
[2]; x1 = 1
  mass density: 880.86 ± 0.15 kg/m3

## CC(C)CO [2-methyl-1-propanol]
[1]
  mass density: 797.84 ± 0.31 kg/m3

## CC(C)CO [2-methyl-1-propanol] + CCCCCl
[2]; x2 = 0
  mass density: 797.84 ± 0.31 kg/m3

## CCCCCl [1-chlorobutane]
[1]
  mass density: 880.86 ± 0.15 kg/m3

## CCCCN [1-butanamine] + CCCCCl
[2]; x2 = 0
  mass density: 734.65 ± 0.21 kg/m3
[2]; x2 = 0.0428
  mass density: 740.64 ± 0.21 kg/m3
[2]; x2 = 0.0758
  mass density: 745.29 ± 0.21 kg/m3
[2]; x2 = 0.1564
  mass density: 756.7 ± 0.2 kg/m3
[2]; x2 = 0.2259
  mass density: 766.61 ± 0.2 kg/m3
[2]; x2 = 0.3163
  mass density: 779.6 ± 0.19 kg/m3
[2]; x2 = 0.3765
  mass density: 788.3 ± 0.19 kg/m3
[2]; x2 = 0.4412
  mass density: 797.66 ± 0.19 kg/m3
[2]; x2 = 0.4959
  mass density: 805.59 ± 0.18 kg/m3
[2]; x2 = 0.5804
  mass density: 817.91 ± 0.18 kg/m3
[2]; x2 = 0.6566
  mass density: 829.09 ± 0.17 kg/m3
[2]; x2 = 0.7272
  mass density: 839.52 ± 0.17 kg/m3
[2]; x2 = 0.7794
  mass density: 847.26 ± 0.17 kg/m3
[2]; x2 = 0.8465
  mass density: 857.31 ± 0.16 kg/m3
[2]; x2 = 0.8923
  mass density: 864.25 ± 0.16 kg/m3
[2]; x2 = 0.9437
  mass density: 872.12 ± 0.16 kg/m3

## CCCCCl [1-chlorobutane] + CC(C)CO
[2]; x1 = 0.037
  mass density: 801.07 ± 0.3 kg/m3
[2]; x1 = 0.0748
  mass density: 804.35 ± 0.29 kg/m3
[2]; x1 = 0.1521
  mass density: 811.04 ± 0.28 kg/m3
[2]; x1 = 0.2331
  mass density: 817.97 ± 0.27 kg/m3
[2]; x1 = 0.3472
  mass density: 827.62 ± 0.25 kg/m3
[2]; x1 = 0.4266
  mass density: 834.27 ± 0.23 kg/m3
[2]; x1 = 0.4911
  mass density: 839.59 ± 0.22 kg/m3
[2]; x1 = 0.5817
  mass density: 847.01 ± 0.21 kg/m3
[2]; x1 = 0.6178
  mass density: 849.95 ± 0.2 kg/m3
[2]; x1 = 0.6855
  mass density: 855.42 ± 0.19 kg/m3
[2]; x1 = 0.7946
  mass density: 864.22 ± 0.18 kg/m3
[2]; x1 = 0.8885
  mass density: 871.78 ± 0.17 kg/m3
[2]; x1 = 0.9428
  mass density: 876.18 ± 0.16 kg/m3
[2]; x1 = 1
  mass density: 880.86 ± 0.15 kg/m3
